# Test system: pErk2 (Phospho-p44/42 MAP kinase (Thr202/Tyr204))
# Assay: Detection of pErk2 (phospho-p44/42 MAP kinase) in immobilized Jurkat cell lysates (antibody A3)
# Assay type: cell-based, human
# Settings: Jurkat cells treated with 10 μM for 180 min
# Description: Human T-cell cultures (Jurkat, DMZ # ACC282) are utilized for the detection of biologically relevant protein analytes in “immobilization samples”. These cells are cultivated at 37° C. in a solution containing RPMI 1640, 10% FCS (fetal calf serum), 2 mM glutamine, 50 U/ml penicillin, 50 μg/ml streptamycine (cell density at about 0.5×10^6-1.0×10^6 cells/ml). […] A cell culture, which is similar to the one described above but not treated with antibodies, is used as a comparison sample and shall serve as a negative control in the analytical detection method. […] The cells here are simply separated from the medium, without damage to the cells. The supernatant is then decanted, and lysis buffer (7 M urea, 2 M thiourea, 4% CHAPS, 1% DTT, 4 mM spermidine and Complete (protease inhibitor, Roche AG, 1 tablet/50 ml) is added, the total protein concentration being adjusted to about 10 mg/ml. Thereby, all protein-containing cell components are denatured spontaneously and completely and solubilized. The samples obtained by the preparation steps described above are again diluted by a factor of 10 to a total protein concentration of about 1 mg/ml, and are then deposited in discrete measurement areas for generating an array of measurement areas on the evanescent field sensor platform provided with the adhesion-promoting layer. […]
structure (smiles),measurement,value
"CN[C@@H]1C[C@H]2O[C@@](C)([C@@H]1OC)n1c3ccccc3c3c4c(c5c6ccccc6n2c5c31)C(=O)NC4 [staurosporin, staurosporine]",pErk2 signal of the nonstimulated control sample compared with the treated sample,only slightly higher
